Experimental data: patent US20210254056A1, “IDENTIFICATION AND TARGETED MODULATION OF GENE SIGNALING NETWORKS” (CAMP4 THERAPEUTICS CORPORATION, priority 2017, published 2021)
Counter-ions that a name gives are not always drawn.

system: hepatocytes; assay: RNA-seq of hepatocytes stimulated with the compounds of Table 68; settings: not given

Compared with `CCCCC/C=C\C/C=C\C/C=C\C/C=C\CCCC(=O)NCCCl` [ACEA], `CCCCCCCCCCCCCCCCOC[C@H](COP(=O)([O-])OCC[N+](C)(C)C)OC(C)=O` [PAF-C-16] is higher in “# of genes having significantly altered expression” value: 2 for the first, 7 for the second.

Going from `CC1(C)CC=C(c2cnc3ccccc3c2)c2cc(C(=O)Nc3ccc(C(=O)O)cc3)ccc21` [BMS 195614] to `C[C@H]1[C@H]2N(C(=O)CN(C)N2C(=O)NCc2ccccc2)[C@@H](Cc2ccc(OP(=O)(O)O)cc2)C(=O)N1Cc1cccc2cccnc12` [PRI-724], the “# of genes having significantly altered expression” value rises from 46 to 88.

Compared with `C[C@@]1(C(=O)Nc2ccc(F)nc2)CCCN1c1nc(Nc2cc(C3CC3)n[nH]2)c2cccn2n1` [BMS-754807], `Cn1cc(-c2ccc3nnc(C(F)(F)c4ccc5ncccc5c4)n3n2)cn1` [JNJ-38877605] is lower in “# of genes having significantly altered expression” value: 302 for the first, 64 for the second.

First: COCCOCOc1cc2ccc(-c3ccc(C(=O)O)cc3)cc2cc1C12CC3CC(CC(C3)C1)C2 [CD 2665]
Second: Oc1c(F)cc(-c2cnccc2-c2ccc(N3CCOCC3)cc2)cc1F [LJI308]
The “# of genes having significantly altered expression” value of the first is higher: 1102 for the first, 1 for the second.

First: Cc1ccccc1N=Nc1ccc(NC(=O)c2ccnn2C)c(C)c1 [CH223191]
Second: CCOC(=O)c1cncn1[C@H](C)c1ccccc1 [Etomidate]
The “# of genes having significantly altered expression” value of the first is higher: 198 for the first, 2 for the second.

First: CCN(CC)CCCC(C)Nc1ccnc2cc(Cl)ccc12 (centres unmarked) [Chloroquine phosphate]
Second: c1ccc2c(-c3cnn4cc(-c5ccc(N6CCNCC6)cc5)cnc34)ccnc2c1 [LDN193189]
The “# of genes having significantly altered expression” value of the first is higher: 573 for the first, 67 for the second.

Compared with `[Cl][Co][Cl]` [Cobalt chloride], `CCC1=C(C)CN(C(=O)NCCc2ccc(S(=O)(=O)NC(=O)N[C@H]3CC[C@H](C)CC3)cc2)C1=O` [Gilmepiride] is lower in “# of genes having significantly altered expression” value: 1275 for the first, 39 for the second.

First: CCCCCCCCCCCC(=O)OC[C@H](COP(=O)([O-])OCC[N+](C)(C)C)OC(=O)CCCCCCCCCCC [DLPC]
Second: CS[C@H]1SC[C@H]2C(=O)N(C)[C@@H](C(C)C)C(=O)OC[C@@H](NC(=O)c3cnc4ccccc4n3)C(=O)N[C@@H](C)C(=O)N(C)[C@@H]1C(=O)N(C)[C@@H](C(C)C)C(=O)OC[C@@H](NC(=O)c1cnc3ccccc3n1)C(=O)N[C@@H](C)C(=O)N2C [Echinomycin]
The “# of genes having significantly altered expression” value of the first is lower: 4 for the first, 7161 for the second.

Compared with `COc1cccc(-n2c(=O)[nH]c3cc(Cl)n(-c4ccc(-c5cccc(OC)c5O)cc4)c3c2=O)c1` [GSK621], `OCc1ccc(-c2ccc(-c3ccc(CO)s3)o2)s1` [RITA (NSC 652287)] is higher in “# of genes having significantly altered expression” value: 5 for the first, 105 for the second.

same assay, conditions: hepatocytes stimulated with the compound; RNA-seq; […]

First: Cc1ccc2nc(NC(=O)CSc3nc4c(c(=O)n3-c3ccccc3)SCC4)sc2c1 [IWP-2]
Second: Cc1ccc(NC(=O)c2ccc(CN3CCN(C)CC3)cc2)cc1Nc1nc(-c2cccnc2)cs1 [Mastinib]
The “# of genes having significantly altered expression” value of the first is lower: 15 for the first, 151 for the second.

same assay, conditions: hepatocytes stimulated with the compound; RNA-seq; significance: FPKM≥1, q-value≤0.05, log 2 fold change≥1.5

Compared with `CC1(C)CCC(c2ccc(Cl)cc2)=C(CN2CCN(c3ccc(C(=O)NS(=O)(=O)c4ccc(N[C@H](CCN5CCOCC5)CSc5ccccc5)c(S(=O)(=O)C(F)(F)F)c4)cc3)CC2)C1` [ABT-263], `NCC(=O)Nc1ccc(-n2nc(C(F)(F)F)cc2-c2ccc3c(ccc4ccccc43)c2)cc1` [OSU-03012] is higher in “# of genes having significantly altered expression” value: 1 for the first, 1786 for the second.

Going from `COCCOc1cnc2ccn([C@H](C)c3nnc4c(F)cc(-c5cnn(C)c5)cn34)c(=O)c2c1` [AMG337] to `C[C@@H](Oc1cc(-c2cnn(C3CCNCC3)c2)cnc1N)c1c(Cl)ccc(F)c1Cl` [Crizotinib], the “# of genes having significantly altered expression” value rises from 3 to 3265.

First: CN(C)C/C=C/C(=O)Nc1cc2c(Nc3ccc(F)c(Cl)c3)ncnc2cc1O[C@H]1CCOC1 [Afatinib]
Second: COc1cc(Nc2c(C#N)cnc3cc(OCCCN4CCN(C)CC4)c(OC)cc23)c(Cl)cc1Cl [Bosutinib]
The “# of genes having significantly altered expression” value of the first is lower: 2010 for the first, 2184 for the second.

Compared with `S=C(NCc1ccc2c(c1)OCO2)N1CCN(c2ncnc3c2oc2ccccc23)CC1` [Amuvatinib], `CCNC1(C(N)=O)CCN(c2ncnc3c2nc(-c2ccccc2Cl)n3-c2ccc(Cl)cc2)CC1` [Otenabant] is lower in “# of genes having significantly altered expression” value: 2835 for the first, 36 for the second.

First: CNC(=O)c1ccccc1Sc1ccc2c(/C=C/c3ccccn3)n[nH]c2c1 [Axitinib]
Second: O=c1cc(N2CCOCC2)oc2c(-c3ccccc3)cccc12 [LY294002]
The “# of genes having significantly altered expression” value of the first is lower: 5 for the first, 981 for the second.

Compared with `C=C(c1ccc(C(=O)O)cc1)c1cc2c(cc1C)C(C)(C)CCC2(C)C` [Bexarotene], `Cc1nc(Nc2ncc(C(=O)Nc3c(C)cccc3Cl)s2)cc(N2CCN(CCO)CC2)n1` [Dasatinib] is higher in “# of genes having significantly altered expression” value: 267 for the first, 2970 for the second.

First: C=C1/C(=C\C=C2/CCC[C@]3(C)[C@@H]([C@H](C)CCCC(C)(C)O)CC[C@@H]23)C[C@@H](O)C[C@@H]1O [Calcitrol]
Second: C=C1/C(=C\C=C2/CCC[C@]3(C)[C@@H]([C@H](C)/C=C/C=C/C(O)(CC)CC)CC[C@@H]23)C[C@@H](O)C[C@@H]1O [EB1089]
The “# of genes having significantly altered expression” value of the first is higher: 1950 for the first, 68 for the second.

Compared with `OCCn1cc(-c2ccc3c(c2)CC/C3=N\O)c(-c2ccncc2)n1` [GDC-0879], `COc1cc2c(cc1OC)-c1c(OC)c(OC)cc3ccnc(c13)C2=O` [Oxoglaucine] is lower in “# of genes having significantly altered expression” value: 274 for the first, 31 for the second.

Going from `NCCc1c[nH]cn1` [Histamine] to `COc1ccc2[nH]c([S+]([O-])Cc3ncc(C)c(OC)c3C)nc2c1` (centres unmarked) [Omeprazole], the “# of genes having significantly altered expression” value rises from 20 to 61.

With `Cc1[nH]c(/C=C2\C(=O)Nc3ccc(S(=O)(=O)Cc4c(Cl)cccc4Cl)cc32)c(C)c1C(=O)N1CCC[C@@H]1CN1CCCC1` [PHA-665752] the “# of genes having significantly altered expression” value was 1767.

system: primary human hepatocytes; assay: RNA-seq of primary human hepatocytes treated with 39 small molecules (pilot and validation); settings: RNA-seq, p-value≤0.05; primary human hepatocytes; the modulated genes are listed in the block

In the case of `Cc1ccc(NC(=O)c2ccc(CN3CCN(C)CC3)cc2)cc1Nc1nccc(-c2cccnc2)n1` [MT-182, Imatinib], the “significant modulation of gene expression” value (“significant modulation” for short) is reported as “significantly (p-value≤0.05) modulate”.
In the case of `CC1(C)CC=C(c2ccccc2)c2cc(/C=C/c3ccc(C(=O)O)cc3)ccc21` [MT-232, Bms189453], the “significant modulation” value is reported as “significantly (p-value≤0.05) modulate”.
For `CN1CCC(CNc2ccc3ncc(-c4cccc(OC(F)(F)F)c4)n3n2)CC1` [MT-254, SGI-1776], the “significant modulation” value was “significantly (p-value≤0.05) modulate”.
`O=C(O)CC[C@H]1CC[C@@](c2cc(F)ccc2F)(S(=O)(=O)c2ccc(Cl)cc2)CC1` [MT-308, MK-0752] was tested, and the “significant modulation” value was “significantly (p-value≤0.05) modulate”.
For `NNC(=O)c1ccncc1` [MT-312, Isoniazid], the “significant modulation” value was “significantly (p-value≤0.05) modulate”.
`CC(C)c1nc(CN(C)C(=O)N[C@H](C(=O)N[C@@H](Cc2ccccc2)C[C@H](O)[C@H](Cc2ccccc2)NC(=O)OCc2cncs2)C(C)C)cs1` [MT-372, Ritonavir] was tested, and the “significant modulation” value was “significantly (p-value≤0.05) modulate”.
With `CCOc1ccn(-c2ccc(F)cc2)c(=O)c1C(=O)Nc1ccc(Oc2ccnc(N)c2Cl)c(F)c1` [MT-375, Bms777607] the “significant modulation” value was “significantly (p-value≤0.05) modulate”.
With `CC1=C(/C=C/C(C)=C/C=C/C(C)=C/C(=O)O)C(C)(C)CCC1` [MT-603, Tretinoin (ATRA)] the “significant modulation” value was “significantly (p-value≤0.05) modulate”.
With `CNCc1ccc(C)c(NC(=O)c2ccc(Nc3nc(-c4ccccc4)c4ccccc4n3)cc2)c1` [MT-636, Bms833923] the “significant modulation” value was “significantly (p-value≤0.05) modulate”.
With `CC(C)Cc1ccc(C(C)C(=O)O)cc1` (centres unmarked) [MT-662, Ibuprofen] the “significant modulation” value was “significantly (p-value≤0.05) modulate”.
For `Oc1nc(-c2ccc(C(F)(F)F)cc2)nc2c1CSCC2` [MT-713, Xav939], the “significant modulation” value was “significantly (p-value≤0.05) modulate”.
In the case of `c1ccc(-c2[nH]ncc2-c2ccnc3ccccc23)nc1` [MT-740, LY 364947], the “significant modulation” value is reported as “significantly (p-value≤0.05) modulate”.
For `CCCCC(C)(C)[C@H](O)/C=C/[C@H]1[C@H](O)CC(=O)[C@@H]1C/C=C\CCCC(=O)O` [MT-937, DmPGE2], the “significant modulation” value was “significantly (p-value≤0.05) modulate”.
In the case of `COc1ccc(C[C@H](NC(C)=O)C(=O)N[C@H]2[C@@H](O)[C@H](n3cnc4c(N(C)C)ncnc43)O[C@@H]2CO)cc1` [MT-993, N-Acetylpurinomycin], the “significant modulation” value is reported as “significantly (p-value≤0.05) modulate”.

same assay, conditions: pilot RNA-seq study of Example 2; significance: FPKM≥0.5, log 2(fold change)≥1, q-value ≤0.05

Compared with `Cc1ccc(NC(=O)c2ccc(CN3CCN(C)CC3)cc2)cc1Nc1nccc(-c2cccnc2)n1` [MT-182, Imatinib], `CNCc1ccc(C)c(NC(=O)c2ccc(Nc3nc(-c4ccccc4)c4ccccc4n3)cc2)c1` [MT-636, Bms833923] is higher in “Number (#) of genes having significantly changed expression” value: 31 for the first, 66 for the second.

Going from `CC1(C)CC=C(c2ccccc2)c2cc(/C=C/c3ccc(C(=O)O)cc3)ccc21` [MT-232, Bms189453] to `CCOc1ccn(-c2ccc(F)cc2)c(=O)c1C(=O)Nc1ccc(Oc2ccnc(N)c2Cl)c(F)c1` [MT-375, Bms777607], the “Number (#) of genes having significantly changed expression” value rises from 1 to 19.

First: CN1CCC(CNc2ccc3ncc(-c4cccc(OC(F)(F)F)c4)n3n2)CC1 [MT-254, SGI-1776]
Second: Oc1nc(-c2ccc(C(F)(F)F)cc2)nc2c1CSCC2 [MT-713, Xav939]
The “Number (#) of genes having significantly changed expression” value of the first is higher: 64 for the first, 8 for the second.

Compared with `NNC(=O)c1ccncc1` [MT-312, Isoniazid], `CC(=O)Nc1ccc(O)cc1` [MT-922, Acetaminophen (paracetamol)] is lower in “Number (#) of genes having significantly changed expression” value: 14 for the first, 3 for the second.

Compared with `c1cc(-c2cnn3cc(-c4ccc(OCCN5CCCCC5)cc4)cnc23)ccn1` [MT-334, Dorsomorphin], `CN(CCOc1ccc(CC2SC(=O)NC2=O)cc1)c1ccccn1` (centres unmarked) [MT-361, Rosiglitazone maleate] is higher in “Number (#) of genes having significantly changed expression” value: 15 for the first, 78 for the second.

Compared with `CC(C)c1nc(CN(C)C(=O)N[C@H](C(=O)N[C@@H](Cc2ccccc2)C[C@H](O)[C@H](Cc2ccccc2)NC(=O)OCc2cncs2)C(C)C)cs1` [MT-372, Ritonavir], `CC(C)Cc1ccc(C(C)C(=O)O)cc1` (centres unmarked) [MT-662, Ibuprofen] is lower in “Number (#) of genes having significantly changed expression” value: 183 for the first, 18 for the second.

Compared with `CC1=C(/C=C/C(C)=C/C=C/C(C)=C/C(=O)O)C(C)(C)CCC1` [MT-603, Tretinoin (ATRA)], `CO[C@H]1C[C@@H]2CC[C@@H](C)[C@@](O)(O2)C(=O)C(=O)N2CCCC[C@H]2C(=O)O[C@H]([C@H](C)C[C@@H]2CC[C@@H](O)[C@H](OC)C2)CC(=O)[C@H](C)/C=C(\C)[C@@H](O)[C@@H](OC)C(=O)[C@H](C)C[C@H](C)/C=C/C=C/C=C/1C` [MT-882, Rapamycin] is higher in “Number (#) of genes having significantly changed expression” value: 30 for the first, 67 for the second.

For `CCCC(CCC)C(=O)O` [MT-625, Valproate], the “Number (#) of genes having significantly changed expression” value was 4.
